In one test the test system is RCC-B spheroids. Nature of the test: Cell survival rate assay on spheroid culture (CellTiter-Glo 3D). The test is classed as cell-based, human. The following applies: SITA (100 μM) in combination with SUN, third day. An excerpt: (§1) After attaining the informed consent from the patients at Saitama Medical Center, Saitama Medical University, patient-derived cells (PDC) were produced from the tumors excised from the RCC patients. The tumor samples were processed with reference to the literature (Namekawa, T, et al. ALDH1A1 in patient-derived bladder cancer spheroids activates retinoic acid signaling leading to TUBB3 overexpression and tumor progression. Int. J. Cancer 146, 1099-1113 (2019)). The protocol of the research was approved by the Ethics Committee of Saitama Medical Center, Saitama Medical University (No. 1363-IV).
(§2) A cell survival rate of the cells 3 days after the drug treatment and siRNA transfection was evaluated by CellTiter-Glo 3D Assay (Promega K.K.).
(§3) FIGS. 2b to 2c depict the results of treating the RCC-A spheroids and the RCC-B spheroids with SITA (100 μM) and SUN. The data was presented as the mean value ±SD of the relative luciferase activity as analyzed by an ATP-based luciferase assay. […] In FIGS. 2b to 2c, moreover, “*” represents P<0.05.
(§4) The production of the spheroid ATP in the RCC-A cells or RCC-B cells treated with SUN alone or a combination of SUN and SITA on the third day was measured with the luciferase activity using the CEllTiter-Glo. […]
Background: In ATP-based viability assays light output follows the ATP content of the culture.

Another test has as its system RCC-A spheroids. The description is as above. The conditions noted are these: SITA (100 μM) in combination with SUN, third day. The test is classed as cell-based, human.
Text: as §1, §2, §3, §4

Test [1] deals with IL6 mRNA. Nature of the test: IL6 mRNA level in 3D culture of ACHN-R cells (qRT-PCR). The test is classed as cell-based, human. The conditions noted are these: SITA treatment versus vehicle, ACHN-R cells 3D culture. How it is done:
(§5) Extraction of RNA, synthesis of cDNA, and quantitative reverse-transcription polymerase chain reaction (qRT-PCR) were carried out according to the methods disclosed in “[…], et al. ALDH1A1 in patient-derived bladder cancer spheroids activates retinoic acid signaling leading to TUBB3 overexpression and tumor progression. Int. J. Cancer 146, 1099-1113 (2019).” FIGS. 4k to 4l depict the results studying how SITA treatment affects the IL6 mRNA level in the 3D cultures of the ACHN-R cells (FIGS. 4k) and 769-P-R cells (FIG. 4l), which are both SUN resistant cells. […] In FIGS. 4k to 4l, moreover, “*” represents P<0.05.
A general note: Quantitative PCR measures a nucleic acid by following its amplification.

Test [2] has as its system IL6 mRNA. Nature of the test: IL6 mRNA level in 3D culture of 769-P-R cells (qRT-PCR). The test is classed as cell-based, human. The conditions noted are these: SITA treatment versus vehicle, 769-P-R cells 3D culture. As to the method:
as §5

The subject of a further test is ACHN cells. Nature of the test: 3D spheroid proliferation / cell survival rate assay. The format is cell-based, human. The following applies: SITA alone, dose-response. As to the method: (§6) ACHN and 769-P, which were human RCC cell lines, were acquired from the American Type Culture Collection (ATCC), and those authenticated by short tandem repeat (STR) analysis performed by BEX CO., LTD. were used. The ACHN and 769-P cells were cultured on a DEME medium and a PRMI medium (NACALI TESQUE, INC.), respectively, to both of which 10% of FBS, 100 U/mL of penicillin, and 100 μg/mL of streptomycin were added, using an incubator set at 37° C. and 5% CO2. The ACHN and 769-P cells were exposed to sunitinib (SUN) at 10 μM max., for 6 months or longer, to produce SUN resistant RCC cell lines, ACHN-R and 769-P-R, respectively.
as §2
(§7) FIG. 4a depicts the results of ACHN-R and the parent cell line thereof. FIG. 4b depicts the results of 769-P-R and the parent cell line thereof. […] In FIGS. 4a to 4b, moreover, “ns” represents “no significant difference.”
(§8) FIGS. 4m to 4n are diagrams depicting the results studying how the DPP4 overexpression affects the cell survival rate of the RCC spheroids treated with SUN. ACHN cells (FIG. 4m) and 769-P cells (FIG. 4n), each stably expressing a control vector (vector #1 or #2) or DPP4 (DPP4 #1 or #2) were treated with SUN, and were analyzed by an ATP-based luciferase assay. […]

The subject of the next test is 769-P cells. The test is described as above. The test is classed as cell-based, human. The following applies: SITA alone, dose-response. As to the method: as §6, §2, §7, §8
The test system of another test is ACHN-R xenograft tumor. Nature of the test: Xenograft tumor model in nude mice. The format is in vivo.
Another test relates to ACHN-R cells. Nature of the test: 3D spheroid proliferation / cell survival rate assay. The format is cell-based, human. As to the method: as §6, §2, §7
(§9) FIGS. 4c to 4f are diagrams depicting the results of studying the effect of the combination of SITA and SUN in the 3D culture of the ACHN cells (FIG. 4c), ACHN-R cells (FIG. 4d), 769-P cells (FIG. 4e), or 769-P-R cells (FIG. 4f). The concentration of SITA used was 100 μM. […] In FIGS. 4c, 4d, and 4f, moreover, […] represents P<0.05.
(§10) FIGS. 4g to 4j are diagrams depicting the results studying how the DPP4 knockdown by siRNA affects the therapeutic effects of SUN in the 3D culture of the ACHN cells (FIG. 4g), ACHN−R cells (FIG. 4h), 769-P cells (FIG. 4i), or 769-P-R cells (FIG. 4j). The data was represented as the means value±SD of the relative luciferase activity of each group of the spheroids, and n=3. […] In FIGS. 4h to 4j, moreover, “*” represents P<0.05.

Another test concerns 769-P-R cells. The test is described as above. The format is cell-based, human. How it is done:
as §6, §2, §7, §9, §10

Where [3] appears, read: combination of SUN and SITA (100 μM).

Protocol for ACHN-R xenograft tumor: Male nude mice (BALB/c-nu/nu, 6 weeks old) were acquired from CLAIR Japan, Inc. The ACHN cells and the ACHN−R cells were each subjected to trypsinization, followed by washing with PBS. Then, 5×10^6 cells of the ACHN cells or the ACHN−R cells were dispersed in 150 μL of Matrigel (BD Biosciences), and were subcutaneously inoculated in each mouse. The size of the tumor was measured every day. The tumor volume (V) was determined by measuring the length (L) and the width (W), and inserting the measured values in the following equation.
When the volume of the engrafted tumor reached 180 mm^3, SUN (20 mg/kg) was orally administered to the mice inoculated with the ACHN cells, and SUN (20 mg/kg) alone or two drugs, SUN (20 mg/kg) and DPP4 inhibitor sitagliptin (SITA) (30 mg/kg), were orally administered to the randomly selected mice inoculated with the ACHN-R cells. […] The drug was administered in a cycle consisting of 2 consecutive days of administration, followed by 1 day of washout.
At the point when the volume of the ACHN or ACHN−R xenograft nude mouse tumor reached 180 mm^3, oral administration of SUN alone, or a combination of SUN and SITA was started.
The data was presented as the mean SD, and n=6. […] The tumor volume was estimated by measuring the size of the tumor with Vernier calipers. […] In FIGS. 6a and 6b, moreover, “k” represents P<0.05.
Ki67 immunohistochemical staining of the excised tumor of each group was carried out to determine a ratio of Ki67 positive cells (Ki67 index). […] The scale bar is 50 μm. […] In FIG. 6g, moreover, “*” represents P<0.05.
The expression level was evaluated by qRT-PCR. […] In FIGS. 6h to 6l, moreover, “*” represents P<0.05.

For the compound `N[C@@H](CC(=O)N1CCn2c(nnc2C(F)(F)F)C1)Cc1cc(F)c(F)cc1F` [SITA, sitagliptin], the “proliferation inhibition effect owing to SUN (cell survival rate, relative luciferase activity)” value in the test with RCC-B spheroids and in the test on RCC-A spheroids was “proliferation inhibition effect owing to SUN was enhanced” each time. Further, the “IL6 mRNA level” value in the test on IL6 mRNA [1] and in the test on IL6 mRNA [2] was “reduced the expression of mRNA of IL6” each time. The spheroid proliferation entry in the test on ACHN cells is listed as “did not affect the spheroid proliferation”; in the test on 769-P cells it was “did not affect the spheroid proliferation”; in the test with ACHN-R cells (SITA alone, dose-response) it was “did not affect the spheroid proliferation”; in the test on ACHN-R cells (setting [3]) it was “suppressed the spheroid proliferation”; in the test on 769-P-R cells (SITA alone, dose-response), “did not affect the spheroid proliferation”; in the test on 769-P-R cells (setting [3]), “suppressed the spheroid proliferation”. Besides, the “Ki67 index (ratio of Ki67 positive cells)” value in the test on ACHN-R xenograft tumor (SITA and SUN in combination, ACHN-R xenograft tumor) was “reduced the Ki67 index”. For the same compound, the “sunitinib resistance of the RCC xenograft tumor” value in the test on ACHN-R xenograft tumor (SITA in combination with SUN) was “contributed to overturn the sunitinib resistance”. Further, the “expression of IL6 (mRNA level) in tumor” value with ACHN-R xenograft tumor (SITA in combination with SUN, ACHN-R xenograft tumor) is listed as “expression of IL6 decreased”. The “proliferation of the tumor (tumor volume, tumor weight)” value in the test with ACHN-R xenograft tumor (SUN (20 mg/kg) and SITA (30 mg/kg) orally in combination, ACHN-R xenograft, 13th day) is given as “proliferation of the tumor was suppressed to the similar degree to the ACHN xenograft tumor”.
